Reference: ChEMBL document CHEMBL1201862, “PubChem BioAssay data set” (2004)
Calls of active or inactive are those of the source. Rule as the data show it, for most assays here: actives have a measured EC50 and inactives only a lower limit.

Experiments:
[1] = system: Streptococcus sp. 'group A'; assay: Streptococcus pyogenes SK(-)GAS viability under kanamycin – luminescence, BacTiterGlo, confirmation, counter-screen for streptokinase expression inhibitor project, dose response (AID 1900); format: functional, organism-based
Streptococcus = assay: GAS UMAA2166 growth inhibition – luminescence, BacTiterGlo, counter-screen for streptokinase expression inhibitor project, dose response (AID 1915); format: functional, organism-based;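 also: potency for reduction of bacterial viability or growth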
[2] = biological target: T1, Carboxy-terminal domain RNA polymerase II polypeptide A small phosphatase 1 (Homo sapiens, UniProt Q9GZU7); assay: CTDSP1 inhibitors, concentration-response, biochemical, absorbance readout, ultra-high-throughput screen actives (AID 540297); format: functional
T1 sequence (Q9GZU7 whole entry): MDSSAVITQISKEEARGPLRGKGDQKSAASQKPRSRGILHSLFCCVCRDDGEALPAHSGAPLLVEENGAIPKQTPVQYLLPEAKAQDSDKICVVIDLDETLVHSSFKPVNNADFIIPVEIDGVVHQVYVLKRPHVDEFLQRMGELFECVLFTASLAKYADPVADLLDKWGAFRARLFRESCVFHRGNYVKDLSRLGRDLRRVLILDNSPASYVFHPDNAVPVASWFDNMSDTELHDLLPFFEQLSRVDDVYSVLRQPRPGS

Streptokinase A = biological target: T2, Streptokinase A (Streptococcus pyogenes serotype M1, UniProt P10520); assay: viability-normalized secreted streptokinase activity reduction – plasminogen activation absorbance, OD405, dose response (AID 1914); format: functional, Streptococcus pyogenes M1 GAS;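 also: secreted streptokinase activity via plasminogen activation per viability signal from cell pellet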
T2 sequence (P10520 whole entry): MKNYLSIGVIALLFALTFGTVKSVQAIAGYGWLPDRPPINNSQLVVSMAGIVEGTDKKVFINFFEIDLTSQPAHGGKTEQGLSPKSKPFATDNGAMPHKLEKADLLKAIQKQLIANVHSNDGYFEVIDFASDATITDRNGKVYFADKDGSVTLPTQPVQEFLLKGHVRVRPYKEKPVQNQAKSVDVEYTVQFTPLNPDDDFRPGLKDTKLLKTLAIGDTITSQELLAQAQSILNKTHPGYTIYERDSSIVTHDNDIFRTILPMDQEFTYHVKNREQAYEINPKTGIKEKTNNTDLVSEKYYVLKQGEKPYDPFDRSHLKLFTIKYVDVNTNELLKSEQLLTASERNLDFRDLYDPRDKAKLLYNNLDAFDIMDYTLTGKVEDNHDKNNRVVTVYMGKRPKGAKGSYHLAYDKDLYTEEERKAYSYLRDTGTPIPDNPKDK

[3] = biological target: FAD-linked sulfhydryl oxidase ALR (Homo sapiens, UniProt P55789); assay: ALR-catalysed DTT oxidation blockers – biochemical, H2O2 detection, luminescence, cherry-pick, dose response (AID 493248)
Sequence of FAD-linked sulfhydryl oxidase ALR (P55789 whole entry): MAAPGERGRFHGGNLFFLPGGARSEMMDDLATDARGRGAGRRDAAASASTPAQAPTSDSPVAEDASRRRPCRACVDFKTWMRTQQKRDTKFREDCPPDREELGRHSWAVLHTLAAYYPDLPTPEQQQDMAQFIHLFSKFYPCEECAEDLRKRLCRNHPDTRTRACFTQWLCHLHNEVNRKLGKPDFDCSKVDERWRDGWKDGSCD

[4] = viability of HCT116 lacking mutant beta-catenin – cell-based, human colon tumor, dose response (AID 1045); format: functional;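 also: HCT116 colon tumor cells with beta catenin knocked out; cells exposed to compound for 60 hours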
[5] = biological target: T3, Rac GTPase-activating protein 1 (Homo sapiens, UniProt Q9H0H5); assay: blockers of MgcRacGAP-driven Rac1 GTP hydrolysis – biochemical, ADP Hunter fluorescence, primary and confirmatory, confirmation (AID 624330); format: functional
T3 sequence (Q9H0H5 whole entry): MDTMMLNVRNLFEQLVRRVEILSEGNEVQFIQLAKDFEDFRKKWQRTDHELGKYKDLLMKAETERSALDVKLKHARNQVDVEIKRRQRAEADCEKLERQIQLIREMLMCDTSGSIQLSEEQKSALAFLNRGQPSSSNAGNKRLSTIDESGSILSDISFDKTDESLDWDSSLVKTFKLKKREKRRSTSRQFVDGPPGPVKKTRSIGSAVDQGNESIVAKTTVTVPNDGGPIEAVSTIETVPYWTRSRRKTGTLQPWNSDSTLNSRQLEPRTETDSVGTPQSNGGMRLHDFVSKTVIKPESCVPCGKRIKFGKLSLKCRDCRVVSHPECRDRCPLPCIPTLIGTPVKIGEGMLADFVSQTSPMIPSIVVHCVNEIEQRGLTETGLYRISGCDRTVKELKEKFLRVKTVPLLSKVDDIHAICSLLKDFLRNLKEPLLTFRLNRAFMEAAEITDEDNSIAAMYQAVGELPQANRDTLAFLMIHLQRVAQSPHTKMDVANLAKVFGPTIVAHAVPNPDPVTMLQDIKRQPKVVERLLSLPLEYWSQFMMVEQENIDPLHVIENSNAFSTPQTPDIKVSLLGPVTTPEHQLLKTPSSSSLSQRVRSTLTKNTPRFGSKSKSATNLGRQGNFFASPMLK

[6] = viability of PTEN-deleted HCT116 cells – cell-based, HCT116 PTEN knockout, dose response (AID 1047); format: functional;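 also: HCT116 colon tumor cells with PTEN knocked out; cells exposed to compound for 60 hours before readout; potency for loss of cell viability measured by luminescence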
[7] = biological target: Luciferin 4-monooxygenase (Photinus pyralis, UniProt P08659); assay: inhibition of purified Photinus pyralis luciferase – biochemical, luminescence, dose response (AID 1891)
Sequence of Luciferin 4-monooxygenase (P08659 whole entry): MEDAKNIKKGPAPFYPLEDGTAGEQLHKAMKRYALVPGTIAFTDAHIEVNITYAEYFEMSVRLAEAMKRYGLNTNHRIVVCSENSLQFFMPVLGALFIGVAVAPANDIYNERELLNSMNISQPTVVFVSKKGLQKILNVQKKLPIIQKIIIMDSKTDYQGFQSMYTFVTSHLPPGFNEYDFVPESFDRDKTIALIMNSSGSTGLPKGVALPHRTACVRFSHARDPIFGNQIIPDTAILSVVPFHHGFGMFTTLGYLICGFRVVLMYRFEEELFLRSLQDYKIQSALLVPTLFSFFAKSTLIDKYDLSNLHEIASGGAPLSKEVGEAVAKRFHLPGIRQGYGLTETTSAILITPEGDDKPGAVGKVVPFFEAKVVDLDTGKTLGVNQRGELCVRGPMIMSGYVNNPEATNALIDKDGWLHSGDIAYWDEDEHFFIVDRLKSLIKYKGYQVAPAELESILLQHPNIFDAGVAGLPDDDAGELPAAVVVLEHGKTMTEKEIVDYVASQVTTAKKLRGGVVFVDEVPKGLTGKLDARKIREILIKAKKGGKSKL

[8] = Luminescence Cell-Based Dose Confirmation HTS to Identify Inhibitors of Platelet Dense Granule Release. [Related pubchem assays: 1663 (Primary HTS), 1678 (Summary of Project)]; format: functional
[9] = biological target: T4, Heat shock factor protein 1 (Mus musculus, UniProt P38532); assay: decrease of HSF1-responsive luciferase luminescence – cell-based, NIH3T3, dose retest, confirmation (AID 2382); format: functional;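 also: NIH3T3 fibroblasts with HSF1-driven luciferase reporter stressed by proteasome inhibitor MG132; luminescence from HSF1-driven luciferase expression after 8 hours of MG132 stress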
T4 sequence (P38532 whole entry): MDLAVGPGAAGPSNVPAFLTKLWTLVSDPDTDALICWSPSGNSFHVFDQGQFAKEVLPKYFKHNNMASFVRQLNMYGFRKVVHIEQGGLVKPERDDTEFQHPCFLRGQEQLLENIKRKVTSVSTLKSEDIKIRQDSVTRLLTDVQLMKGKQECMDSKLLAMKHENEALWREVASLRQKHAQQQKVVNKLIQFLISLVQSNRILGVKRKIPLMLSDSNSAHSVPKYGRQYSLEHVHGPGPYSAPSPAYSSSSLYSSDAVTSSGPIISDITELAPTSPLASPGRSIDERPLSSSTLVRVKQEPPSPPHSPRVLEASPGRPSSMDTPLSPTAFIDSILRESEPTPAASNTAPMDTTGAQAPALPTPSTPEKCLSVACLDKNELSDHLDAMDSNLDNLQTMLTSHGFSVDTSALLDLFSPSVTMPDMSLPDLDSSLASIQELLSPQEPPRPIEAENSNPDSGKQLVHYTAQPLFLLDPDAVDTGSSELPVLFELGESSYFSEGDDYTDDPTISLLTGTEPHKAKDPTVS

[10] = alpha-synuclein stem-loop luciferase translation blockers – H4 neuroglioma cells, luminescence, confirmation (AID 1988); format: functional, cell-based
[11] = luciferase reporter signal suppression in cells – H4 neuroglioma cells, luminescence, dose response (AID 1990); format: functional, cell-based
[12] = Luminescence Cell-Based Dose Response HTS to Identify Inhibitors of 5'UTR Stem-Loop Driven Prion Protein mRNA Translation in H4 Neuroglioblastoma Cells. [Related pubchem assays: 1827 (Project Summary), 1813 (Primary HTS)]; format: functional

Structure (SMILES): COc1ccc(Cn2c(C3CCCCC3)nc3c(c(=O)c4ccccc4n3C)c2=O)cc1
- EC50 [1]: 6.03 µM (active)
- EC50 (Streptococcus): 6.96 µM (active)
- IC50 [2]: 5.55 µM (active)
- EC50 (Streptokinase A): > 150 µM (not active)

Structure (SMILES): CCCc1cc(C(N)=O)c(NC(=O)c2ccoc2C)s1
- AC50 [3]: 2.74 µM (active)

Structure (SMILES): COc1cc2nc(S)n3nc(CCn4nc(C)cc4C)nc3c2cc1OC
- EC50 [1]: 28.4 µM (active)
- EC50 [4]: 25 µM (active)
- IC50 [5]: 23.2 µM (active)
- EC50 [6]: 14.5 µM (active)
- EC50 (Streptococcus): > 150 µM (not active)
- EC50 (Streptokinase A): > 150 µM (not active)

Structure (SMILES): O=C1c2ccccc2C(O)N1CCN1CCOCC1 (configuration not stated)
- EC50 [7]: > 112 µM (not active)
- EC50 [8]: > 112 µM (not active)

Structure (SMILES): Cc1nc(SCc2cccnc2)nc(O)c1C
- AC50 [3]: 1.18 µM (active)

Structure (SMILES): CCCn1nc(NS(=O)(=O)c2ccc(F)cc2)c2cc3ccccc3nc21
- EC50 [7]: > 112 µM (not active)
- EC50 [8]: > 112 µM (not active)

Structure (SMILES): [O-][S+](c1ccc2ccccc2c1)c1cnns1 (configuration not stated)
- AC50 [3]: 0.769 µM (active)

Structure (SMILES): Fc1ccc(-c2nnc(NC3=NCCCCC3)o2)cc1
- EC50 [9]: 16 µM (active)
- EC50 [10]: 1.4 µM (active)
- EC50 [11]: 2.66 µM (active)
- EC50 [12]: 0.751 µM (active)
- EC50 [7]: 13.9 µM (active)
- EC50 [8]: 2.88 µM (active)

Structure (SMILES): COc1ccc(N2CCN(CCCNC(=O)C3CCCN(S(=O)(=O)c4c[nH]cn4)C3)CC2)cc1 (configuration not stated)
- AC50 [3]: 25.4 µM (active)

Structure (SMILES): Cc1sc(NC(=O)c2cc(-c3ccc(Cl)cc3)nc3ccccc23)c(C(N)=O)c1C
- EC50 [4]: 15.3 µM (active)
- EC50 [6]: 17.3 µM (active)

Structure (SMILES): Cc1ccc(S(=O)(=O)NNC(=O)NC23CC4CC(CC(C4)C2)C3)cc1
- AC50 [3]: 1.02 µM (active)
